From patent US20250298019A1, “BORRELIA BURGDORFERI PEPTIDOGLYCAN DETECTION METHODS” (VIRGINIA TECH INTELLECTUAL PROPERTIES, INC., priority 2021, published 2025)

Tested on: B. burgdorferi 5A11
Assay: Growth of B. burgdorferi in BSK-II medium with GlcNAc replaced by other N-acetylated sugars
Assay type: cell-based, Borrelia burgdorferi
Details: FIG. 7; for ability to support growth in the absence of GlcNAc: GlcNAc-free BSK-II supplemented with the sugar, 37° C., 5% CO2

| SMILES | ability to support growth in the absence of GlcNAc | replication rate and final density compared with GlcNAc (5A11 in BSK-II complete media supplemented with the sugar, three independent cultures) |
| --- | --- | --- |
| CC(=O)N[C@H]1C(O)O[C@H](CO)[C@H](O)[C@@H]1O (stereo partly drawn) [GalNAc, N-acetylgalactosamine] | support growth in the absence of GlcNAc | – |
| CC(=O)N[C@@H]1C(O)O[C@H](CO)[C@@H](O)[C@@H]1O (stereo partly drawn) [ManNAc, N-acetylmannosamine] | support growth in the absence of GlcNAc | replicated at a similar rate and reached a comparable final density to GlcNAc |
